# According to patent US6869948B1 (Boehringer Ingelheim Pharma KG, priority 1998, dated 2005):
# Where two headings read alike, the source gives them in different places.
# Legend:
# [1] = type: physicochemical
# Method: Under ambient conditions the monohydrate of the meloxicam-meglumin salt is the stable modification, but at a relative humidity of over 75% a dihydrate is formed. The enclosed water can only be eliminated from the dihydrate under conditions of very great dryness. […] By intensive drying over a fairly long period the anhydrous form changes more and more into an amorphous form and after 24 h at 100° C. the material is totally amorphous.
# The relevant parameters of the dehydration process are the temperature and duration of dehydration, the influence of which were observed by X-ray powder diffraction. The longer the dehydration process lasts, the less crystalline is the resulting material. […] The X-ray powder diffraction diagrams obtained after 1 hour at 80° C., 15 hours at 70° C., 20 hours at 80° C. and 24 hours at 100° C. are shown in FIG. 7.
# [2] = depending on the formulation; cited from earlier work
# [3] = Saturation solubility of meloxicam and its salts in various dissolving media; type: physicochemical; conditions: 0.1 N hydrochloric acid, pH 1, simulated gastric fluid, read-out: Solubility at ambient temperature
# [4] = cited from earlier work
compound,measurement,setting,value
"CNC[C@H](O)[C@@H](O)[C@H](O)[C@H](O)CO.Cc1cnc(NC(=O)C2=C(O)c3ccccc3S(=O)(=O)N2C)s1.O [Example 1, Meloxicam Meglumin Salt Monohydrate]",hygroscopic properties,[1],hygroscopic
same,solid-state change on dehydration (X-ray powder diffraction),[1]; 24 hours at 100° C.,anhydrous and totally amorphous
same,solid-state change on dehydration (X-ray powder diffraction),[1]; one hour at 80° C.,no change can be detected
"CNC[C@H](O)[C@@H](O)[C@H](O)[C@H](O)CO.Cc1cnc(NC(=O)C2=C(O)c3ccccc3S(=O)(=O)N2C)s1 [Example 3, Anhydrous Meloxicam Meglumin Salt]",stability of the anhydrous form after dehydration,[1],very rapidly absorbs water to form the monohydrate form
"Cc1cnc(NC(=O)C2=C(O)c3ccccc3S(=O)(=O)N2C)s1 [Meloxicam, 4-hydroxy-2-methyl-N-(5-methyl-2-thiazolyl)-2H-1,2-benzothiazine-3-carboxamide-1,1-dioxide]",time to maximum plasma levels,[2],2 to 8 h
same,solubility thermodynamic,[3],0.9 µg/mL
ibuprofen-lysinate,time after administration to peak-plasma level,"[4]; 8 fasting test subjects, ibuprofen-lysinate 1000 mg film-coated tablet, ibuprofenic acid 600 mg sugar-coated tablet",0.55 h
same,time after administration to peak-plasma level,[4]; non-fasting test subjects,1.18 h
